Counter-ions that a name gives are not always drawn.

Experiment [1] deals with T1, human progesterone receptor (Homo sapiens, UniProt P06401).
T1 sequence (P06401 1-933): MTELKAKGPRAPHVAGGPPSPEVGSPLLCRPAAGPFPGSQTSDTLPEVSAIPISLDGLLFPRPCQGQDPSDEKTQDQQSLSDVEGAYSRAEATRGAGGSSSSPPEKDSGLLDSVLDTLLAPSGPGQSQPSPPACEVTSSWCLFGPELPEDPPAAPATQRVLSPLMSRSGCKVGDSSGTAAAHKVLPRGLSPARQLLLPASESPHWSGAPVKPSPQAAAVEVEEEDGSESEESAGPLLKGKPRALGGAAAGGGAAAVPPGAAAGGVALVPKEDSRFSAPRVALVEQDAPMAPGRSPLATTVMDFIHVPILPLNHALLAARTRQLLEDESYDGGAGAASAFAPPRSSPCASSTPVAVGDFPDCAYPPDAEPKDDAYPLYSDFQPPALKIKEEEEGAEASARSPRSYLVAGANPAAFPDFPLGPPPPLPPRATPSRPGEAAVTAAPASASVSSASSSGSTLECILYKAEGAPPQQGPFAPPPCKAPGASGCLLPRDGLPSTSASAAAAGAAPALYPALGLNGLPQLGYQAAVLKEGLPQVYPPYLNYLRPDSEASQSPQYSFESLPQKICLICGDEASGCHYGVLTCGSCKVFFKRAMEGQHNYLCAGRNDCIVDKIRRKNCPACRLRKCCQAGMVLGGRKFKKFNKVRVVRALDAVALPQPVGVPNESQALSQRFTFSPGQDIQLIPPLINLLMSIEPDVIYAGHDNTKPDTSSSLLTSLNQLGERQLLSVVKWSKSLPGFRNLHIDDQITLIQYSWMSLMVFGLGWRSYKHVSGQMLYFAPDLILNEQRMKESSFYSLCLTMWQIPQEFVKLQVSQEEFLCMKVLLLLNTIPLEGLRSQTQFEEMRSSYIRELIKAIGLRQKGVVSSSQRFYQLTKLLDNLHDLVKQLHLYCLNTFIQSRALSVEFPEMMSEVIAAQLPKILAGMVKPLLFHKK
As to the kind of experiment: Relative binding affinity for the human progesterone receptor. The note with it: for Relative binding affinity to progesterone receptor: progesterone as reference = 100.

In the next experiment the test system is endometrium. As to the kind of experiment: McPhail test (progestational proliferation of the endometrium). The format is in vivo, rabbits. The note with it: for Mean McPhail Score (max. 4.0): estrone-primed immature female rabbits, five daily doses. How it is done: Trimegestone sulfate was tested in the McPhail test, which is a test for progesterone and like substances. Immature female rabbits are treated with 150 IU of estrone over a period of 6 days. The test material is then given in five daily subcutaneous doses. Progestational proliferation of the endometrium is noted and the results estimated according to a scale from 0 to 4.0.

With `CC(O)C(=O)C1(C)CCC2C3CC(O)C4=CC(=O)CCC4=C3CCC21C` (stereo not drawn) [6β-OH trimegestone, 6β-hydroxytrimegestone, reference compound], the “Relative binding affinity to progesterone receptor” value (from here on “Relative binding affinity”) in experiment [1] came to 12.
For the molecule `CC(=O)[C@H]1CC[C@H]2[C@@H]3CCC4=CC(=O)CC[C@]4(C)[C@H]3CC[C@]12C` [Progesterone], the results for the “Mean McPhail Score (max. 4.0)” value in the experiment with endometrium (0.1 mg/kg/day s.c.) and with endometrium (1.0 mg/kg/day s.c.) were 2.25 and 3.75, respectively.
In the case of `C[C@H](OS(=O)(=O)O)C(=O)[C@@]1(C)CCC2C3CCC4=CC(=O)CCC4=C3CC[C@@]21C` (stereo partly shown) [Trimegestone sulfate, Trimegestone sulfate, pyridinium salt], the “relative affinity for the progesterone receptor” value in experiment [1] (% of the affinity of natural progesterone) is listed as 40%. Moreover, the “Relative binding affinity” value in experiment [1] was 40. The “Mean McPhail Score (max. 4.0)” value came out at 0.75 in the experiment on endometrium (0.0001 mg/kg/day s.c.); 0.88 in the experiment with endometrium (0.001 mg/kg/day s.c.); 2.1 in the experiment with endometrium (0.01 mg/kg/day s.c.); 3.31 in the experiment on endometrium (0.1 mg/kg/day s.c.); 2.93 in the experiment with endometrium (1.0 mg/kg/day s.c.); 3.68 in the experiment with endometrium (10.0 mg/kg/day s.c.). For the same molecule, the “endometrium transforming effects in the McPhail test” value with endometrium (s.c., 0.0001 to 10.0 mg/kg/day, result in words) is “dose-dependent potent endometrium transforming effects”.
On to `CC(O)C(=O)C1(C)CCC2C3CCC4=CC(=O)CC(O)C4=C3CCC21C` (stereo not drawn) [1β-OH trimegestone, 1β-hydroxytrimegestone, reference compound], for which the “Relative binding affinity” value in experiment [1] is on record as 64.

The values above are taken from patent US20090093448A1, “19-NOR-PROGESTERONE FOR CONTRACEPTION” (GRUNENTHAL GMBH, priority 2007, published 2009).
